The results in this text go back to ChEMBL document CHEMBL3997765 (Medchemcomm, 2016).

Assay [1] deals with Casein kinase II subunit alpha (Homo sapiens) (UniProt P68400). Description: Inhibition of full length recombinant human His-tagged CK2alpha1 expressed in baculovirus expression system at 10 uM by Z'-LYTE assay relative to control.
Assay [2] has as its target Tyrosine-protein kinase JAK3 (Homo sapiens) (UniProt P52333). Briefly: Inhibition of recombinant human GST-tagged JAK3 catalytic domain (781 to 1124 residues) expressed in baculovirus expression system at 10 uM by Z'-LYTE assay relative to control.
Assay [3] concerns the target Epidermal growth factor receptor (Homo sapiens) (UniProt P00533). Description: Inhibition of recombinant human GST-tagged EGFR cytoplasmic domain (668 to 1210 residues) expressed in baculovirus expression system at 10 uM by Z'-LYTE assay relative to control.
The target of assay [4] is Aurora kinase A (Homo sapiens) (UniProt O14965). Description: Inhibition of full length recombinant human His-tagged Aurora A expressed in baculovirus expression system at 10 uM by Z'-LYTE assay relative to control.
Aurora kinase A (Homo sapiens), sequence (O14965 whole entry, the tested form may be a part): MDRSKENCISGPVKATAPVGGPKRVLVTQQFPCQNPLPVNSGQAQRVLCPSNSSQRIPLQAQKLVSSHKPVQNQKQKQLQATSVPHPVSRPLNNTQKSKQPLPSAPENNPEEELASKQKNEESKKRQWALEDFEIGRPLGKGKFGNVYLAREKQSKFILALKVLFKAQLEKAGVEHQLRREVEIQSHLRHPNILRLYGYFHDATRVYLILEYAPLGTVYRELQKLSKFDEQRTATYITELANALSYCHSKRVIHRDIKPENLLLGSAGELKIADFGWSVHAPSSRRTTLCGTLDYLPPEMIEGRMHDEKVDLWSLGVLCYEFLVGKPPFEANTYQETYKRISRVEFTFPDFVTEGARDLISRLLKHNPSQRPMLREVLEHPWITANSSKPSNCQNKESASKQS
Assay [5] addresses Proto-oncogene tyrosine-protein kinase Src (Homo sapiens) (UniProt P12931). Description: Inhibition of recombinant human C-terminal His-tagged SRC cytoplasmic domain expressed in baculovirus expression system at 10 uM by Z'-LYTE assay relative to control.
For assay [6], the target named is Tyrosine-protein kinase ABL1 (Homo sapiens) (UniProt P00519). Description: Inhibition of recombinant human His-tagged ABL1 cytoplasmic domain expressed in baculovirus expression system at 10 uM by Z'-LYTE assay relative to control.
Assay [7] concerns the target Receptor-type tyrosine-protein kinase FLT3 (Homo sapiens) (UniProt P36888). Description: Inhibition of recombinant human His-tagged FLT3 cytoplasmic domain (564 to 958 residues) expressed in baculovirus expression system at 10 uM by Z'-LYTE assay relative to control.
For assay [8], the target named is Mitogen-activated protein kinase kinase kinase kinase 4 (Homo sapiens) (UniProt O95819). Description: Inhibition of recombinant human GST-tagged HGK catalytic domain (1 to 328 residues) expressed in baculovirus expression system at 10 uM by Z'-LYTE assay relative to control.
Mitogen-activated protein kinase kinase kinase kinase 4 (Homo sapiens), sequence (O95819 2-1239 limits assumed): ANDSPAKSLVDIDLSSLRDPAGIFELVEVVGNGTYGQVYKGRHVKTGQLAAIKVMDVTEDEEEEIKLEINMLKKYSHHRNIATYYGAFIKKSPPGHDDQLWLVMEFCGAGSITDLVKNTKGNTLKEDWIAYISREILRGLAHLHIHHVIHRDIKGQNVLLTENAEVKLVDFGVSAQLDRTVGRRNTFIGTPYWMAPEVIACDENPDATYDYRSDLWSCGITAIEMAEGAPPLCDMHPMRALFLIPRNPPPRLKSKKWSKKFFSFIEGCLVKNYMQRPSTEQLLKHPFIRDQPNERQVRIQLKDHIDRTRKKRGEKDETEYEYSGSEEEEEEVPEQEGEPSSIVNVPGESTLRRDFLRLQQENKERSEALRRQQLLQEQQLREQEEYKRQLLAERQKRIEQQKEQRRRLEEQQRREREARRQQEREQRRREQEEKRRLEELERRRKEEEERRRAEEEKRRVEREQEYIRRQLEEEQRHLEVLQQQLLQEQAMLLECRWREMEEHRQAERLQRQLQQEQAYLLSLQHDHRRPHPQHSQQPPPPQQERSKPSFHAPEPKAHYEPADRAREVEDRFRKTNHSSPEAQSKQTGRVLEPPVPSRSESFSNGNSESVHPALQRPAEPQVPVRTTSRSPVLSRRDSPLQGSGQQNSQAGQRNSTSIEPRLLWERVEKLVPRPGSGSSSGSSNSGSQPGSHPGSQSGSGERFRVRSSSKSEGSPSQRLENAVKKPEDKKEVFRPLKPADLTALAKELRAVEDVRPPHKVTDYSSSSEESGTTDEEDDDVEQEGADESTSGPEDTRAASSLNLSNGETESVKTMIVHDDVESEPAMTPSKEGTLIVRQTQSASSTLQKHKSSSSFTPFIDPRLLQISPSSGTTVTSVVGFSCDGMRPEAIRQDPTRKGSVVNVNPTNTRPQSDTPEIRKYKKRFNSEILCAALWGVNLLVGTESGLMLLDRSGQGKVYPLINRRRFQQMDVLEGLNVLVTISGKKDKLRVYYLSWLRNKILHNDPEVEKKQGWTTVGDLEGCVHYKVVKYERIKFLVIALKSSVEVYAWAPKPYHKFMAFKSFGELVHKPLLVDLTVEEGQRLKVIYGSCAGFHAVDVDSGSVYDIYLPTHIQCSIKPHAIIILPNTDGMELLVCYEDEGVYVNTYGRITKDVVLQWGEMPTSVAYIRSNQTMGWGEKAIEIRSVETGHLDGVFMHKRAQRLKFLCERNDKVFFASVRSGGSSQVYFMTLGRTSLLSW
Assay [9] deals with Serine/threonine-protein kinase Chk1 (Homo sapiens) (UniProt O14757). Briefly: Inhibition of full length recombinant human His-tagged CHK1 expressed in baculovirus expression system at 10 uM by Z'-LYTE assay relative to control.
Serine/threonine-protein kinase Chk1 (Homo sapiens), sequence (O14757 whole entry): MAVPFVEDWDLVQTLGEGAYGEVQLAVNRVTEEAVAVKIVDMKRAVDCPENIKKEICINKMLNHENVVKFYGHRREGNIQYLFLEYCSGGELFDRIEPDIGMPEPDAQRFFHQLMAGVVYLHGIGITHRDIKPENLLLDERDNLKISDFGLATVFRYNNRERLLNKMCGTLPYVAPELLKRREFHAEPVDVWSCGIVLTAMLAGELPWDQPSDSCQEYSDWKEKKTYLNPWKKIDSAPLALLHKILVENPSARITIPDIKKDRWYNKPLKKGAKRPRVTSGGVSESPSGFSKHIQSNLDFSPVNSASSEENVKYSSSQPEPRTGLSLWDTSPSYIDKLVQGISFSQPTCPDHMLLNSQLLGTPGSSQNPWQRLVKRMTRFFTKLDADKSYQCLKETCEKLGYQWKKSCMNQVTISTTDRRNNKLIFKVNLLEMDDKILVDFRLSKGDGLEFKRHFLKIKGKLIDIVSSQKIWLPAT
Assay [10] concerns the target RAC-alpha serine/threonine-protein kinase (Homo sapiens) (UniProt P31749). Description: Inhibition of full length recombinant human His-tagged PKBalpha expressed in baculovirus expression system at 10 uM by Z'-LYTE assay relative to control.
The target in assay [11] is Dual specificity tyrosine-phosphorylation-regulated kinase 3 (Homo sapiens) (UniProt O43781). Description: Inhibition of full length recombinant human GST-tagged DYRK3 expressed in baculovirus expression system at 10 uM by Z'-LYTE assay relative to control.
Assay [12] deals with Mitogen-activated protein kinase 3 (Homo sapiens) (UniProt P27361). Description: Inhibition of full length recombinant human GST-tagged ERK1 expressed in Escherichia coli at 10 uM by Z'-LYTE assay relative to control.

Proto-oncogene tyrosine-protein kinase Src (Homo sapiens), sequence (P12931 2-536 limits assumed): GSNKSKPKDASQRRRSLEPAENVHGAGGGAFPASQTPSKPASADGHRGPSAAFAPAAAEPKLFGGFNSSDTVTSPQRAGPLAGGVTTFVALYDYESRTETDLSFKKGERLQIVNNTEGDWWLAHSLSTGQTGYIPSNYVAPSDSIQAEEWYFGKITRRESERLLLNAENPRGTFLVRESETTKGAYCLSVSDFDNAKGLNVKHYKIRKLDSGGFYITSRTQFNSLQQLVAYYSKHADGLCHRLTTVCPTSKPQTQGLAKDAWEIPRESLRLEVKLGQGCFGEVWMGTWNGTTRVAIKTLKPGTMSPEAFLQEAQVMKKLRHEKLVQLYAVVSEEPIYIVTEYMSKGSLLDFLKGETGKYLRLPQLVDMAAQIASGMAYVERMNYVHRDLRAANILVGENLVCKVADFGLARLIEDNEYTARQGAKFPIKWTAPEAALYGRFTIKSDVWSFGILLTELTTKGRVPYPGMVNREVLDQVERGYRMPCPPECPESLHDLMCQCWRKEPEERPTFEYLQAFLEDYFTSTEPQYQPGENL
Tyrosine-protein kinase JAK3 (Homo sapiens), sequence (P52333 whole entry, the tested form may be a part): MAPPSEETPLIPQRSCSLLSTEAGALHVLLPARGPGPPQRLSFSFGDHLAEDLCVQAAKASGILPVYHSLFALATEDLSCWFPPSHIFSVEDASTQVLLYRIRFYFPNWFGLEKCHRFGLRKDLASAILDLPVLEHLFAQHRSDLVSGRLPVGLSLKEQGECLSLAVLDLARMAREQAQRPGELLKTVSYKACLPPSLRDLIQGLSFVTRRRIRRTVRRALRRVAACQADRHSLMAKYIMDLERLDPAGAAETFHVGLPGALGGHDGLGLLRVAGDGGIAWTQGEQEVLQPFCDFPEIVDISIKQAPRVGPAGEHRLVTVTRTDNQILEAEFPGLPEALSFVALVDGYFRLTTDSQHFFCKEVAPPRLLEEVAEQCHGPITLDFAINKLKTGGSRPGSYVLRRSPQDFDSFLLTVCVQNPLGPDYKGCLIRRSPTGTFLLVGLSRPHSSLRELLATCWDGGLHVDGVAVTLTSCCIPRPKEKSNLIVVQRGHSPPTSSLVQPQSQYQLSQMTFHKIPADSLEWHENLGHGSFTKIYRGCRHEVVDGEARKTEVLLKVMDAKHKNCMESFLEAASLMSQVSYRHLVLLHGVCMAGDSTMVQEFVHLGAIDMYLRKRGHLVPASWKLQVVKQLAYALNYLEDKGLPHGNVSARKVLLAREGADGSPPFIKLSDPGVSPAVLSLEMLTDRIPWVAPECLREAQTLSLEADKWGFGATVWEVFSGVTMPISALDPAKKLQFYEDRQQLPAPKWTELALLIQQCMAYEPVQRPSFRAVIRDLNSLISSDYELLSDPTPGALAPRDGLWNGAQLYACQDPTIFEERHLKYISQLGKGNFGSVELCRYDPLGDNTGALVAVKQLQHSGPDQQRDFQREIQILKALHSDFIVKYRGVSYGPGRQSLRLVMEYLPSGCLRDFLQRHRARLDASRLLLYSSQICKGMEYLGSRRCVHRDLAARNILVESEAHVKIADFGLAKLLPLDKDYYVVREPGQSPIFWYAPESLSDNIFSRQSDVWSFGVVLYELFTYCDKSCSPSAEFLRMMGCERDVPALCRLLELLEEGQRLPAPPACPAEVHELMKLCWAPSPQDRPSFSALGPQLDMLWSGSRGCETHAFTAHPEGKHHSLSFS
Receptor-type tyrosine-protein kinase FLT3 (Homo sapiens), sequence (P36888 whole entry, the tested form may be a part): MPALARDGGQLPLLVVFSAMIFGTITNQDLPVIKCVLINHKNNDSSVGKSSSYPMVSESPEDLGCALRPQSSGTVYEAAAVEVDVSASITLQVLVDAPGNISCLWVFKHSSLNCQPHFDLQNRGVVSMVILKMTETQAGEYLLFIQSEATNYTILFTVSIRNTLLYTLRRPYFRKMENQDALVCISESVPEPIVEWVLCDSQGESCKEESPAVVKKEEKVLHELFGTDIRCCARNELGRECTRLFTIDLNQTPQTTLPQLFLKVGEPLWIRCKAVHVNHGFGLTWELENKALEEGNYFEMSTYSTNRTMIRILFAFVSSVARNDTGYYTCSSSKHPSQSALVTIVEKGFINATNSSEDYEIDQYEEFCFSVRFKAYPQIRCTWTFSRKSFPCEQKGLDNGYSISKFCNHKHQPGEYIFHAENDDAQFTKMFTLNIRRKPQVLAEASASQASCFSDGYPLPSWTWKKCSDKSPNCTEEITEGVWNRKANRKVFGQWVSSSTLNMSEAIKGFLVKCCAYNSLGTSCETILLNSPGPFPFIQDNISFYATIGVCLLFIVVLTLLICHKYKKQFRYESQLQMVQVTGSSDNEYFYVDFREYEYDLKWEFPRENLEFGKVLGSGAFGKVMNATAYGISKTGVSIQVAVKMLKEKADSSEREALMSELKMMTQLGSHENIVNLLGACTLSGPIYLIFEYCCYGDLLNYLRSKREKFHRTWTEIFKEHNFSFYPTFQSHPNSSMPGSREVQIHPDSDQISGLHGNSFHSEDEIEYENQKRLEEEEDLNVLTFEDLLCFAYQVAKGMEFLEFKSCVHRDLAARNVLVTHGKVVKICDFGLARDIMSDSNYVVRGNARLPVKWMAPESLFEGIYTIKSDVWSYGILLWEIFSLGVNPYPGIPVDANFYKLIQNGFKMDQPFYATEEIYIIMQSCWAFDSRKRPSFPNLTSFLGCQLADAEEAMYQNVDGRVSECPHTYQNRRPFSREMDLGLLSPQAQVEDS

What is called inhibition is the relative decrease from the control value, in per cent. Consider `CC1=Nc2c(Sc3ccccc3)ncnc2Sc2ccccc21`, for which the inhibition in assay [1] is 3%; in [2], -1%; in assay [3] it was 1%; in assay [4], 6%; in assay [5], 3%; in assay [6], 12%. Moreover, the inhibition was determined as 6% in assay [7]; 15% in [8]; 3% in [9]; 5% in [10]; 8% in [11]; 5% in assay [12].
